Data as given in patent US20220288020A1, “METHOD OF TREATING NEOPLASTIC DISEASES WITH A CDC42-SPECIFIC INHIBITOR” (Children's Hospital Medical Center, priority 2019, published 2022).

Key:
[1] = tested on: Splenic CD4+ YFP+ Tregs from Cdc42+/- mice; test: Stability of Cdc42+/- Tregs cultured with or without acetazolamide (flow cytometry, IFN-γ+ cells); format: cell-based, mouse; conditions: Splenic CD4+ YFP+ Tregs from Cdc42+/- mice cultured with AZA; FIG. 3E
Method: (§1) FIG. 3. […] (A, B) Treg-specific heterozygous deletion of Cdc42 upregulates CAI and alkalizes extracellular pH of Tregs. Splenic CD4^+ YFP^+ Tregs were flow-sorted from WT and Cdc42^+/− mice. CAI expression was detected by Q-PCR (A). Another aliquot of the cells were cultured with Anti-CD3/CD28 and IL-2 for 36 hrs. pH of the culture medium (pHe) was measured by a pH meter. (C, D) Extracellular alkalization destabilizes Tregs. Splenic CD4^+ YFP^+ Tregs from WT mice were cultured as described in B, with regular medium of pH 7.4 or medium of pH 7.56 (C). Alternatively, the cells were cultured with conditional medium (CM) from WT Treg culture or from Cdc42^+/− Treg culture (D). Percentages of IFN-γ^+ cells within Tregs (left) and non-Tregs (right) were analyzed by flow cytometry. (E) Inhibition of CAI by acetazolamide (AZA) rescues instability of Cdc42^+/− Tregs. […] Percentages of IFN-γ^+ cells within Tregs (left) and non-Tregs (right) were analyzed by flow cytometry. […] Three days after starting AZA injection, the mice were inoculated (s.c.) with MC38 (8×10^5) and tumor volume was recorded. n=4-7. […]
(§2) Cdc42^fl/+Foxp3^YFP-Cre and Cdc42^+/+Foxp3^YFP-Cre mice were inoculated (s.c.) with MC38 mouse colon cancer cells (8×10^5) or KPC mouse pancreatic cancer cells (8×10^5). Tumor volume was monitored. […] Quantitative real-time RT-PCR (Q-PCR) confirmed the upregulation of CAI in Cdc42^+/− Tregs (FIG. 3A). […]

[2] = tested on: MC38 mouse colon cancer cells; test: MC38 tumor growth in Cdc42+/- mice treated with AZA; format: in vivo; conditions: AZA 40 mg/kg i.p. once a day, started three days before MC38 (8×10^5) s.c.; vs Cdc42+/- + vehicle; FIG. 3F
Method: as §1, §2

[3] = tested on: MC38 mouse colon cancer cells; test: Prophylactic CASIN treatment, syngeneic MC38 tumor model in C57BL/6 mice; format: in vivo
Method: FIG. 4. Prophylactic CASIN causes anti-tumor immunity. C57BL/6 mice were injected (i.p.) with vehicle or 30 mg/kg body weight of CASIN twice a day for one week and then 40 mg/kg body weight of CASIN once a day until the end of the experiment. One day after the first CASIN treatment, the mice were injected (s.c.) with MC38 (8×10^5). Tumor growth was monitored (A). Upon euthanasia, tumors were dissected and the expression of IFN-γ^+, IL-4^+ and/or IL-17^+ within CD4^+Foxp3^+ (B), CD4^+Foxp3^− (C), and CD8^+ (D) cells was analyzed by flow cytometry. n=7. Error bars indicate SD. **p<0.01; *p<0.05. In FIGS. 4(A)-(D), data for vehicle administration is the top line (furthest from the x-axis) in FIG. 4A and left side of each data representation in FIGS. 4(B)-(D); and data for CASIN administration is the bottom line (closest to the x-axis) in FIG. 4(A) and right side of each data representation in FIGS. 4(B)-(D).
(§3) The Cdc42 conditional knockout mice and CASIN were developed in CCHMC by Dr. Yi Zheng lab (Yang L, Wang L, Zheng Y. Gene targeting of Cdc42 and Cdc42GAP affirms the critical involvement of Cdc42 in filopodia induction, directed migration, and proliferation in primary mouse embryonic fibroblasts. Mol Biol Cell. 2006 November; 17(11):4675-85) (Liu W, Du W, Shang X, Wang L, Evelyn C, Florian M C, A Ryan M, Rayes A, Zhao X, Setchell K, Meller J, Guo F, Nassar N, Geiger H, Pang Q, Zheng Y. Rational identification of a Cdc42 inhibitor presents a new regimen for long-term hematopoietic stem cell mobilization. Leukemia. 2019 March; 33(3):749-761). In the examples below, the effects of Cdc42 deletion and CASIN on T-cell immunity against tumor growth of colorectal cancer cells and/or pancreatic cancer cells was evaluated. […]
C57BL/6 mice were injected (i.p.) with vehicle or 30 mg/kg body weight of CASIN twice a day for one week and then 40 mg/kg body weight of CASIN once a day until the end of the experiment. […] Tumor growth was monitored. […]

[4] = tested on: MC38 mouse colon cancer cells; test: Therapeutic CASIN treatment upon tumor onset, MC38 tumor model in C57BL/6 mice, with or without Anti-CD4/CD8 T-cell depletion; format: in vivo
Method: FIG. 5. Therapeutic CASIN treatment causes anti-tumor T-cell immunity. C57BL/6 mice were inoculated (s.c.) with MC38 (8×10^5) at day 1 and injected (i.p.) with Anti-CD4/CD8 neutralizing antibodies (5 mg/kg body weight for each antibody) or isotype control antibody once every 4 days starting at day 1. Starting from day 10 when tumor onset was observed, the mice were treated with vehicle or CASIN as described for FIG. 4 above. Tumor volume was monitored (A). At day 14, depletion of T-cells in peripheral blood from the mice treated with Anti-CD4/CD8 neutralizing antibodies was confirmed by flow cytometry (data not shown). Upon euthanasia, tumors were dissected from isotype control antibody-treated mice. The expression of IFN-γ^+ and IL-17^+ in CD4^+Foxp3^+ cells was analyzed by flow cytometry (B). CD3^+ T-cells were visualized by immunohistochemistry using anti-CD3 antibody (C). The expression of IFN-γ^+ and/or IL-17^+ in CD4^+Foxp3^− (D) and CD8^+ cells (E) was analyzed by flow cytometry. n=5. Error bars indicate SD. **p<0.01; *p<0.05. […]
as §3, with “Leukemia. 2019 March; 33(3):749-761).” left out
C57BL/6 mice were injected (s.c.) with MC38 (8×10^5) at day 1 and injected (i.p.) with Anti-CD4/CD8 neutralizing antibodies (5 mg/kg body weight for each antibody) or isotype control antibody once every 4 days starting at day 1. […] Tumor volume was monitored. […]

CC(=O)Nc1nnc(S(N)(=O)=O)s1 [acetazolamide]
instability of Cdc42+/- Tregs (percentages of IFN-γ+ cells within Tregs) [1]: rescued the instability
tumor growth (tumor volume) in Cdc42+/- mice [2]: restores tumor growth

OCCNC1CCCc2c1[nH]c1ccc(-c3ccccc3)cc21 (centres unmarked) [CASIN]
tumor growth ([3]; CASIN i.p. 30 mg/kg twice a day for one week then 40 mg/kg once a day, started one day before MC38 s.c., vs vehicle, FIG. 4A): suppressing tumor growth
Treg stability (IFN-γ+, IL-4+, IL-17+ within tumor CD4+Foxp3+ cells) ([3]; prophylactic CASIN, dissected tumors, flow cytometry, FIG. 4B): destabilizing Tregs
effector T cells (tumor CD4+Foxp3- and CD8+ cells) ([3]; prophylactic CASIN, dissected tumors, flow cytometry, FIG. 4C, D): increasing effector T cells
tumor growth (tumor volume) ([4]; CASIN i.p. 30 mg/kg twice a day for one week then 40 mg/kg once a day from day 10 (tumor onset), isotype control antibody, FIG. 5A): inhibited tumor growth
Treg stability (IFN-γ+ and IL-17+ in tumor CD4+Foxp3+ cells) ([4]; therapeutic CASIN, dissected tumors, flow cytometry, FIG. 5B): Treg instability
effector T-cells (CD3+ T-cells, IFN-γ-producing CD4+Foxp3- and CD8+ cells) in tumors ([4]; therapeutic CASIN, immunohistochemistry and flow cytometry, FIG. 5C-E): increased effector T-cells
